Laboratory results published in patent publication US7084155B2, “Chemokine receptor binding heterocyclic compounds” (AnorMED, priority 2000, dated 2006).

Key:
Type in all cases: cell-based
[1] = system: SDF-1 induced Ca flux in SUP-T1 cells; assay: Inhibition of chemokine (SDF-1) induced Ca flux measured on a FLIPR; conditions: Homo sapiens
Procedure: Inhibition of Chemokine Induced Ca Flux Measured on a FLIPR (Molecular Devices) Loading dye: Fluo-3, AM (Molecular Probes F-1241) is dissolved in anhydrous DMSO and stored frozen in aliquots. To increase the solubility of the dye in the loading medium, 10% (w/v) pluronic acid (Molecular Probes F-127) is added to the Fluo-3 stock solution immediately before use. HBSS+20 mM Hepes buffer+0.2% BSA, pH 7.4. HBSS 10× [(w/o phenol red and sodium bicarbonate (Gibco 14 065–049)]; Hepes buffer 1M (Gibco 15 630–056), BSA (Sigma A3675). The flux buffer is vacuum-filtered and stored refrigerated for a maximum of 5 days. Before use in the experiment, the buffer is warmed at 37° C. in a waterbath. The test compounds were diluted in flux buffer to the desired concentration and added to 4 wells of a black microplate (4 parallel measurements per compound). The following control wells were used: 100% response control (no inhibition), flux buffer was added; 100% inhibition control: chemokine was added at 5-times the concentration required to induce a Ca flux. The chemokines are diluted in flux buffer to concentrations that are 4-fold higher than the desired concentrations required for stimulation of the cells (i.e. 2.5 nM for SDF-1[…] and 0.6 nM for RANTES). The chemokines were added to untreated 96-well Sero well compound plates (International Medical, Sterilin code 611F96). In the negative control well's (baseline monitoring), flux buffer is added instead of chemokine. As a positive control to check for dye loading efficiency, 20 μM digitonin (final concentration) was also included. The agonist plate was incubated in the FLIPR (37° C.) for 15–30 min. Cell Loading Protocol for Measuring Inhibition of SDF-1[…] Induced Ca Flux in SUP-T1 Cells. SUP-T1 cells were centrifuged at room temperature (RT) and re-suspended in loading medium (RPMI-1640 containing 2% FBS and 4 μM Fluo-3, AM). The cells were incubate at room temperature for 45 min. then washed twice in flux buffer then incubated in flux buffer at room temperature for 10 min. The cells were centrifuged and re-suspended in flux buffer at a density of 3×10^6 cells per mL. A 100 uL aliquot of the cell suspension (3×10^5 cells) was added to each well of a black microplate (Costar 3603), which already contains 50 uL of a solution of the test compound (at concentrations that are 3-fold higher than the desired final compound concentrations). The microplate is then gently centrifuged at room temperature. Homogeneous spreading of the cells on the bottom of the microplate wells was then confirmed with a microscope and the microplate was incubated in the FLIPR (37° C.) for 10 min. prior to testing. Fluorescence Measurements as a Function of Time on the FLIPR The FLIPR settings (camera exposure time and laser power) are adjusted to obtain initial fluorescence values between 8,000 and 10,000 units. After monitoring a 20 second-baseline, the agonist (chemokine) (50 uL) is added by automatic pipettor with black pipette tips. Fluorescence is measured simultaneously in all wells of the microplate every 2 seconds (first 2 min) and thereafter every 6 seconds (additional 2 min). The average ca-flux measured in each set of 4 identical wells (one test compound) was calculated by the FLIPR software.

HIV-1 NL4.3 or IIIB = assay: Inhibition of HIV-1 (NL4.3 or IIIB, CXCR4 using) replication in MT-4 cells, MTT viability; conditions: Human immunodeficiency virus 1, IIIB, MT4, concentration protecting 50% of virus-infected cells against viral cytopathicity
Procedure: Assay for Inhibition of HIV-1 (NL4.3) Replication in MT-4 Cells Inhibition of HIV-1 NL4.3 (or IIIB, CXCR4 using) replication assays were performed as previously described (Bridger et al. J. Med. Chem. 1999, 42, 3971-3981; De […] et al. Proc. Natl. Acad. Sci, 1992, 89, 5286-5290; De […] et al. Antimicrob. Agents Chemother. 1994, 38, 668-674; Bridger et al. J. Med. Chem. 1995, 38, 366-378; Schols et al. J. Exp. Med., 1997, 186, 1383-1388). Anti-HIV activity and cytotoxicity measurements were carried out in parallel. They were based on the viability of MT-4 cells that had been infected with HIV in the presence of various concentrations of the test compounds. After the MT-4 cells were allowed to proliferate for 5 days, the number of viable cells was quantified by a tetrazolium-based colorimetric 3-(4,5-dimethylthiazol-2-yl)-2,5-diphenyltetrazolium bromide (MTT) procedure in 96-well microtrays. In all of these assays, viral input (viral multiplicity of infection, MOI) was 0.01, or 100 times the 50% cell culture infective dose (CCID50). The EC50 was defined as the concentration required to protect 50% of the virus-infected cells against viral cytopathicity.

HIV-1 BaL = assay: Inhibition of HIV-1 BaL (CCR5 using) replication in PHA-stimulated PBMC's, viral p24 antigen expression; conditions: Human immunodeficiency virus 1, BAL

Row | SMILES | inhibition at 20 µg/mL [1] [%] | EC50 (HIV-1 NL4.3 or IIIB) [µg/mL] | EC50 (HIV-1 BaL) [µg/mL]
1 | c1ccc(N[C@H]2CCCC[C@H]2NCc2ccc(CNCc3ccccn3)cc2)cc1 (relative stereo) [Example 132, N-(2-pyridinylmethyl)-N′-[cis-2-(N-phenylamino)cyclohexyl]-1,4-benzenedimethanamine] | > 20 | < 20 | < 20
2 | c1ccc(CNCc2ccc(CN[C@H]3CCCC[C@@H]3NCc3ccccn3)cc2)nc1 (relative stereo) [Example 133, N-(2-pyridinylmethyl)-N′-[trans-2-[(pyridin-2-ylmethyl)amino]cyclohexyl]-1,4-benzenedimethanamine] | > 20 | < 20 | < 20
3 | c1ccc(CNCc2ccc(CN(Cc3nc4ccccc4o3)C3CCCc4cccnc43)cc2)nc1 (stereo not drawn) [Example 8, N-(2-pyridinylmethyl)-N′-(benzoxazol-2-ylmethyl)-N′-(5,6,7,8-tetrahydro-8-quinolinyl)-1,4-benzenedimethanamine] |  | < 20 | < 20
4 | Cc1ccc2nc(CN(Cc3ccc(CNCc4ccccn4)cc3)C3CCCc4cccnc43)oc2c1 (stereo not drawn) [Example 17, N-(2-pyridinylmethyl)-N′-(6-methylbenzoxazol-2-ylmethyl)-N′-(5,6,7,8-tetrahydro-8-quinolinyl)-1,4-benzenedimethanamine] |  | < 20 | < 20
5 | c1ccc(CNCc2ccc(CN(Cc3cc4ccccc4[nH]3)C3CCCc4cccnc43)cc2)nc1 (stereo not drawn) [Example 19, N-(2-pyridinylmethyl)-N′-(indol-2-ylmethyl)-N′-(5,6,7,8-tetrahydro-8-quinolinyl)-1,4-benzenedimethanamine] |  | < 20 | < 20
6 | c1ccc(-c2ccc(-c3cnc(CN(Cc4ccc(CNCc5ccccn5)cc4)C4CCCc5cccnc54)[nH]3)cc2)cc1 (stereo not drawn) [Example 31, N-(2-Pyridinylmethyl)-N′-(4-(4-biphenyl)-1H-imidazol-2-ylmethyl)-N′-(5,6,7,8-tetrahydro-8-quinolinyl)-1,4-benzenedimethanamine] |  | < 20 | < 20
7 | c1ccc(CNCc2ccc(CN(Cc3ncc(-c4ccc5c(c4)CCCC5)[nH]3)C3CCCc4cccnc43)cc2)nc1 (stereo not drawn) [Example 32, N-(2-Pyridinylmethyl)-N′-[5-(5,6,7,8-tetrahydronaphthalen-2-yl)-1H-imidazol-2-ylmethyl]-N′-(5,6,7,8-tetrahydro-8-quinolinyl)-1,4-benzenedimethanamine] |  | < 20 | < 20
8 | COc1c(Br)cccc1-c1cnc(CN(Cc2ccc(CNCc3ccccn3)cc2)C2CCCc3cccnc32)[nH]1 (stereo not drawn) [Example 33, N-(2-Pyridinylmethyl)-N′-[5-(3-Bromo-2-methoxy-phenyl)-1H-imidazol-2-ylmethyl]-N′-(5,6,7,8-tetrahydro-8-quinolinyl)-1,4-benzenedimethanamine] |  | < 20 | < 20
9 | c1ccc(CNCc2ccc(CN(CCn3cnc4ccccc43)C3CCCc4cccnc43)cc2)nc1 (stereo not drawn) [Example 37, N-(2-pyridinylmethyl)-N′-[2-(benzimidazol-1-yl)eth-1-yl]-N′-(5,6,7,8-tetrahydro-8-quinolinyl)-1,4-benzenedimethanamine] |  |  | < 20
10 | c1ccc(CNCc2ccc(CN(CCCn3cnc4ccccc43)C3CCCc4cccnc43)cc2)nc1 (stereo not drawn) [Example 38, N-(2-pyridinylmethyl)-N′-[3-(benzimidazol-1-yl)prop-1-yl]-N′-(5,6,7,8-tetrahydro-8-quinolinyl)-1,4-benzenedimethanamine] | > 20 | < 20 | 
11 | c1ccc(CNCc2ccc(CN(Cc3nc4ccccc4[nH]3)C3CCOc4cccnc43)cc2)nc1 (stereo not drawn) [Example 40, N-(2-pyridinylmethyl)-N′-(1-H-benzimidazol-2-ylmethyl)-N′-(3,4-dihydro-2H-pyrano[3,2-b]pyridinyl)-1,4-benzenedimethanamine] | > 20 | < 20 | 
12 | CC1(N(Cc2ccc(CNCc3ccccn3)cc2)Cc2nc3ccccc3[nH]2)CCCc2cccnc21 (stereo not drawn) [Example 42, N-(2-pyridinylmethyl)-N′-(1H-benzimidazol-2-ylmethyl)-N′-(8-methyl-5,6,7,8-tetrahydro-8-quinolinyl)-1,4-benzenedimethanamine] | > 20 | < 20 | 
13 | COc1ccnc2c1CCCC2N(Cc1ccc(CNCc2ccccn2)cc1)Cc1nc2ccccc2[nH]1 (stereo not drawn) [Example 44, N-(2-pyridinylmethyl)-N′-[1H-benzimidazol-2-ylmethyl]-N′-(4-methoxy-5,6,7,8-tetrahydro-8-quinolinyl)-1,4-benzenedimethanamine] | > 20 | < 20 | 
14 | Cc1cccnc1CNCc1ccc(CN(Cc2nc3ccccc3[nH]2)C2CCCc3cccnc32)cc1 (stereo not drawn) [Example 56, N-(3-methyl-2-pyridinylmethyl)-N′-(1H-benzimidazol-2-ylmethyl)-N′-(5,6,7,8-tetrahydro-8-quinolinyl)-1,4-benzenedimethanamine] | > 20 | < 20 | 
15 | Brc1cccc(CNCc2ccc(CN(Cc3nc4ccccc4[nH]3)C3CCCc4cccnc43)cc2)n1 (stereo not drawn) [Example 57, N-(6-bromo-2-pyridinylmethyl)-N′-(1H-benzimidazol-2-ylmethyl)-N′-(5,6,7,8-tetrahydro-8-quinolinyl)-1,4-benzenedimethanamine] | > 20 | < 20 | 
16 | Oc1cccc(CNCc2ccc(CN(Cc3nc4ccccc4[nH]3)C3CCCc4cccnc43)cc2)n1 (stereo not drawn) [Example 58, N-(6-hydroxy-2-pyridinylmethyl)-N′-(1H-benzimidazol-2-ylmethyl)-N′-(5,6,7,8-tetrahydro-8-quinolinyl)-1,4-benzenedimethanamine] | > 20 | < 20 | 
17 | CCCOc1cccnc1CNCc1ccc(CN(Cc2nc3ccccc3[nH]2)C2CCCc3cccnc32)cc1 (stereo not drawn) [Example 59, N-(3-propoxy-2-pyridinylmethyl)-N′-(1H-benzimidazol-2-ylmethyl)-N′-(5,6,7,8-tetrahydro-8-quinolinyl)-1,4-benzenedimethanamine] | > 20 | < 20 | 
18 | c1cnc2c(c1)CCCC2NCc1ccc(CN(Cc2nc3ccccc3[nH]2)C2CCCc3cccnc32)cc1 (stereo not drawn) [Example 60, N-(5,6,7,8-tetrahydro-8-quinolinyl)-N′-(1H-benzimidazol-2-ylmethyl)-N′-(5,6,7,8-tetrahydro-8-quinolinyl)-1,4-benzenedimethanamine] | > 20 | < 20 | 
19 | COc1cccnc1CNCc1ccc(CN(Cc2nc3ccccc3[nH]2)C2CCCc3cccnc32)cc1 (stereo not drawn) [Example 65, N-(3-methoxy-2-pyridinylmethyl)-N′-(1H-benzimidazol-2-ylmethyl)-N′-(5,6,7,8-tetrahydro-8-quinolinyl)-1,4-benzenedimethanamine] | > 20 | < 20 | 
